For 6 compounds, TGI results are on record in PubChem BioAssay (NCI).

Holding throughout (test): growth of human tumour cells (NCI), 48 h
Experiment [1] has as its system 786-0 renal.
Experiment [2] has as its system HS 578T breast.
Experiment [3] deals with M14 melanoma.
For experiment [4], the system named is SF-268 CNS.
Experiment [5] has as its system UACC-62 melanoma.
Experiment [6] has as its system SK-MEL-2 melanoma.
Experiment [7] concerns RPMI-8226 leukemia.
For experiment [8], the system named is MALME-3M melanoma.
Experiment [9] has as its system ACHN renal.
The subject of experiment [10] is T-47D breast.
Experiment [11] has as its system U251 CNS.
Experiment [12] has as its system OVCAR-5 ovarian.

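The compound was tested at five concentrations on cells cultured in 96-well plates, with a 48-hour exposure period. The concentration for full growth arrest is given as TGI.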

Regarding `CCN(CC)C(=S)SNCc1ccc(S(N)(=O)=O)cc1`, the TGI in experiment [1] came out at 28 µM; in [2], 50.4 µM; in experiment [3], 25.1 µM; in [4], 26.7 µM; in experiment [5], 83.1 µM; in experiment [6] it was 39.5 µM. For the same compound, the TGI in experiment [7] worked out at 22.8 µM; in experiment [8], 30.9 µM; in [9] it was 29.6 µM; in experiment [10], 47.7 µM; in experiment [11], 15.8 µM; in [12] it was 29.9 µM.

As for `C=C1CC(C)(COc2ccc3ccc(=O)oc3c2)OC1=O` (configuration not stated), the TGI in experiment [1] is 7.42 µM; in [2], 24.3 µM; in [3], 4.97 µM; in experiment [4] it was 33.5 µM; in [5], 13.2 µM; in experiment [6], 8.8 µM. Besides, the TGI in experiment [7] turned out to be 4.7 µM; in experiment [8], 6.31 µM; in [9], 11.2 µM; in experiment [10], 17.3 µM; in [11] it was 27.1 µM; in [12] it was 22.1 µM.

As for `[O-][n+]1onc(-c2ccccc2)c1CN1CCOCC1`, the TGI in experiment [1], in [2], in experiment [3], in experiment [4], in experiment [5] and in [6] was greater than 100 µM throughout. In addition, the TGI in experiment [7], in experiment [8], in experiment [9], in experiment [10], in experiment [11] and in [12] was greater than 100 µM in each case.

For the compound `Cc1ccc(S(=O)(=O)NC2C(=O)c3ccccc3C(=O)C2n2cnc3ccccc32)cc1` (configuration not stated), the TGI is greater than 100 µM in [1]; greater than 100 µM in experiment [2]; greater than 100 µM in experiment [3]; greater than 100 µM in experiment [4]; 74.4 µM in [5]; 51.7 µM in experiment [6]. Besides, the TGI in [7] was greater than 100 µM; in [8], 1.81 µM; in experiment [9], greater than 100 µM; in experiment [10], greater than 100 µM; in experiment [11], greater than 100 µM; in [12] it was greater than 100 µM.

For the compound `COc1cc(C2C3=C(COC3=O)Oc3cc4c(cc32)OCO4)ccc1OC(C)=O` (configuration not stated), the TGI in experiment [1] is greater than 100 µM; in experiment [2], 0.686 µM; in experiment [3] it was greater than 100 µM; in experiment [4], greater than 59.5 µM; in experiment [5] it was greater than 100 µM; in experiment [6], greater than 100 µM. Besides, the TGI was greater than 100 µM in experiment [7]; 0.565 µM in [8]; greater than 100 µM in [9]; greater than 100 µM in [10]; greater than 100 µM in experiment [11]; greater than 100 µM in experiment [12].

Consider `O=c1c2cccnc2cc(-c2ccccc2)n1CCO`, for which the TGI in experiment [1], in experiment [2], in [3], in experiment [4], in experiment [5] and in [6] was greater than 100 µM in each case. Moreover, the TGI in experiment [7], in [8], in [9], in experiment [10], in experiment [11] and in experiment [12] was greater than 100 µM in each case.
